Results taken from article PMC10132981, “Formate overflow drives toxic folate trapping in MTHFD1 inhibited cancer cells” (Nature Metabolism, 2023).
Like-named read-outs stand apart in the source and are kept apart here. One block for each compound: values may come before it.

Experiments:
Assay in all cases: cells
SW620 = tested on: SW620; set-up: species or system SW620 MTHFD2-/-, HCT116, PA-TU-8988T; Resazurin cell viability dose-response in 384-well plates, fluorescence at 595 nm, logistic fit; conditions: Homo sapiens, SW-620, 96 h, D=Vehicle, 96 h viability, no metabolite rescue (vehicle), read-out: EC50 compound
HCT116 = tested on: HCT116; set-up: species or system SW620, SW620 MTHFD2-/-, PA-TU-8988T; Resazurin cell viability dose-response in 384-well plates, fluorescence at 595 nm, logistic fit; conditions: Homo sapiens, HCT-116, 96 h, Figure 1=Extended Data Fig. 2a; C=RPMI+GlutaMAX (10% FBS, 1% P/S); D=Vehicle; 96 h viability, no metabolite rescue (vehicle); read-out: EC50 compound
SW620 MTHFD2-/- = tested on: SW620 MTHFD2-/-; set-up: species or system HCT116, PA-TU-8988T; Resazurin cell viability dose-response in 384-well plates, fluorescence at 595 nm, logistic fit; conditions: Homo sapiens, SW-620, 96 h, C=RPMI+GlutaMAX (5% dFBS, 1% P/S), D=Vehicle, 96 h viability, no metabolite rescue (vehicle), read-out: EC50 compound
SW620 WT = tested on: SW620 WT; set-up: species or system SW620 MTHFD2-/-, HCT116, PA-TU-8988T; Resazurin cell viability dose-response in 384-well plates, fluorescence at 595 nm, logistic fit; conditions: Homo sapiens, SW-620, 96 h, D=Vehicle, 96 h viability, no metabolite rescue (vehicle), read-out: EC50 compound
SW620 MTHFD2 -/- = tested on: SW620 MTHFD2 -/-; set-up: species or system HCT116, PA-TU-8988T; Resazurin cell viability dose-response in 384-well plates, fluorescence at 595 nm, logistic fit; conditions: Homo sapiens, SW-620, 96 h, C=RPMI+GlutaMAX (5% dFBS, 1% P/S), D=Vehicle, 96 h viability, no metabolite rescue (vehicle), read-out: EC50 compound
PA-TU-8988T = tested on: PA-TU-8988T; set-up: species or system SW620, SW620 MTHFD2-/-, HCT116; Resazurin cell viability dose-response in 384-well plates, fluorescence at 595 nm, logistic fit; conditions: Homo sapiens, PaTu 8988t, 96 h, Figure 1=Extended Data Fig. 3e; C=DMEM+GlutaMAX (5% dFBS, 1% P/S); D=Vehicle; 96 h viability, no metabolite rescue (vehicle); read-out: EC50 compound
[1] = Figure 1=Extended Data Fig. 2b, C=RPMI+GlutaMAX (10% FBS, 1% P/S)
[2] = Figure 1=Extended Data Fig. 2c, C=RPMI+GlutaMAX (10% FBS, 1% P/S)
[3] = C=RPMI+GlutaMAX (5% FBS, 1% P/S)
[4] = Figure 1=Extended Data Fig. 3b, C=RPMI+GlutaMAX (5% dFBS, 1% P/S)
[5] = Figure 1=Extended Data Fig. 3c, C=RPMI+GlutaMAX (5% dFBS, 1% P/S)

EC50 (SW620; Figure 1=2f, C=RPMI+GlutaMAX (10% FBS, 1% P/S)): 5350 nM | EC50 (SW620; [1]): 5170 nM | EC50 (SW620; [2]): 4630 nM | EC50 (HCT116): 2140 nM
Compound: O=c1[nH]cc(F)c(=O)[nH]1 [5-FU]

EC50 (SW620; [3]): > 10000 nM | EC50 (SW620; Figure 1=1d, C=RPMI+GlutaMAX (10% FBS, 1% P/S)): 491 nM | EC50 (SW620; Figure 1=3d, C=RPMI+GlutaMAX (5% dFBS, 1% P/S)): 954 nM | EC50 (SW620; Figure 1=Extended Data Fig.5d, C=RPMI+GlutaMAX (5% dFBS, 1% P/S)): 320 nM | EC50 (SW620 MTHFD2-/-; Figure 1=6f): 162 nM | EC50 (SW620 WT; Figure 1=3k, C=RPMI+GlutaMAX (5% dFBS, 1% P/S)): 954 nM | EC50 (SW620 WT; [4]): 772 nM | EC50 (SW620 MTHFD2 -/-; Figure 1=3o): 551 nM | EC50 (SW620 MTHFD2 -/-; Figure 1=Extended Data Fig. 3d): 57.4 nM
Compound: Cc1c(N2CCN(C)[C@@H](C)C2)ccc2c3c(c(=O)oc12)CN(C(=O)c1ccc(NS(C)(=O)=O)c(OC(F)(F)F)c1)CC3 [DS18561882]

EC50 (SW620; C=HPLM (5% dFBS, 1% P/S)): 27 nM | EC50 (SW620; [3]): 12.3 nM | EC50 (SW620; Figure 1=2e, C=RPMI+GlutaMAX (10% FBS, 1% P/S)): 17 nM | EC50 (SW620; Figure 1=3c, C=RPMI+GlutaMAX (5% dFBS, 1% P/S)): 7.12 nM | EC50 (SW620; [1]): 9.21 nM | EC50 (SW620; [2]): 9.96 nM | EC50 (SW620; Figure 1=Extended Data Fig.5c, C=RPMI+GlutaMAX (5% dFBS, 1% P/S)): 10.6 nM | EC50 (SW620 MTHFD2-/-; Figure 1=6e): 1.21 nM | EC50 (SW620 WT; Figure 1=3j, C=RPMI+GlutaMAX (5% dFBS, 1% P/S)): 6.36 nM | EC50 (SW620 WT; Figure 1=6k, C=RPMI+GlutaMAX (5% dFBS, 1% P/S)): 5.99 nM | EC50 (SW620 WT; [4]): 7.33 nM | EC50 (SW620 WT; [5]): 6.52 nM | EC50 (SW620 MTHFD2 -/-; Figure 1=3n): 1.07 nM | EC50 (SW620 MTHFD2 -/-; Figure 1=Extended Data Fig. 3d): 5.09 nM | EC50 (HCT116): 9.48 nM
Compound: CN(Cc1cnc2nc(N)nc(N)c2n1)c1ccc(C(=O)N[C@@H](CCC(=O)O)C(=O)O)cc1 [MTX]
EC50 (PA-TU-8988T): 30.8 nM

EC50 (SW620; Figure 1=1e, C=RPMI+GlutaMAX (10% FBS, 1% P/S)): 1600 nM | EC50 (SW620 MTHFD2-/-; Figure 1=6g): 2.35 nM
Compound: Cc1[nH]nc2c1C(c1cc(CO)cc(-c3ccccc3)c1)(C(C)C)C(C#N)=C(N)O2 (stereo not drawn) [SHIN1]

EC50 (SW620; C=HPLM (5% dFBS, 1% P/S)): 11.3 nM | EC50 (SW620; [3]): 24.9 nM | EC50 (SW620; Figure 1=1b, C=RPMI+GlutaMAX (10% FBS, 1% P/S)): 20.6 nM | EC50 (SW620; Figure 1=3a, C=RPMI+GlutaMAX (5% dFBS, 1% P/S)): 603 nM | EC50 (SW620; [1]): 27.8 nM | EC50 (SW620; [2]): 21.9 nM | EC50 (SW620; Figure 1=Extended Data Fig. 5j, C=RPMI+GlutaMAX (5% dFBS, 1% P/S)): 258 nM | EC50 (SW620; Figure 1=Extended Data Fig.5a, C=RPMI+GlutaMAX (5% dFBS, 1% P/S)): 572 nM | EC50 (SW620; Figure 1=Extended Data Fig.5f, C=RPMI+GlutaMAX (5% dFBS, 1% P/S)): 439 nM | EC50 (SW620; Figure 1=Extended Data Fig.5h, C=RPMI+GlutaMAX (5% dFBS, 1% P/S)): 239 nM | EC50 (SW620 MTHFD2-/-; Figure 1=6c): 1.24 nM | EC50 (SW620 WT; Figure 1=6i, C=RPMI+GlutaMAX (5% dFBS, 1% P/S)): 1420 nM | EC50 (SW620 WT; Figure 1=3h, C=RPMI+GlutaMAX (5% dFBS, 1% P/S)): 993 nM | EC50 (SW620 WT; [4]): 562 nM | EC50 (SW620 WT; [5]): 694 nM | EC50 (SW620 WT; Figure 1=Extended Data Fig. 3f, C=RPMI+GlutaMAX (5% dFBS, 1% P/S, 10 uM Hypoxanthine)): 16.9 nM | EC50 (SW620 MTHFD2 -/-; Figure 1=3l): 0.626 nM | EC50 (SW620 MTHFD2 -/-; Figure 1=Extended Data Fig. 3d): 1.71 nM | EC50 (HCT116): 52.4 nM
Compound: Nc1nc(N)c(CC(=O)Nc2cnc(C(=O)N[C@@H](CCC(=O)O)C(=O)O)c(F)c2)c(=O)[nH]1 [TH9619]
EC50 (PA-TU-8988T): 22.2 nM
